{"source": "paper PMC3024462", "about": "(Journal of medicinal chemistry, 2010)", "key": {"HIV-1MDR/G (X4)": {"test_system": "HIV-1MDR/G (X4)", "type": "cell-based", "details": "number in parentheses"}, "HIV-1MDR/JSL (R5)": {"test_system": "HIV-1MDR/JSL (R5)", "type": "cell-based", "details": "number in parentheses"}, "HIV-1MDR/MM (R5)": {"test_system": "HIV-1MDR/MM (R5)", "type": "cell-based", "details": "number in parentheses"}, "HIV-1MDR/TM (X4)": {"test_system": "HIV-1MDR/TM (X4)", "type": "cell-based", "details": "number in parentheses"}, "HIV-1MDR/C (X4)": {"test_system": "HIV-1MDR/C (X4)", "type": "cell-based", "details": "number in parentheses"}, "HIV-1MDR/B (X4)": {"test_system": "HIV-1MDR/B (X4)", "type": "cell-based", "details": "number in parentheses"}, "HIV-1LAI": {"test_system": "HIV-1LAI", "test": "Antiviral activity in MT-2 human T-lymphoid cells exposed to HIV-1LAI, MTT assay", "type": "cell-based"}, "HIV-1 protease": {"molecular_target": "HIV-1 protease (Human immunodeficiency virus type 1 group M subtype B, UniProt P04585)", "test": "HIV-1 protease enzyme inhibitory assay", "type": "biochemical", "details": "compared to inhibitor 35a"}}}
{"smiles": "COC(=O)N[C@H](C(=O)N[C@@H](Cc1ccccc1)[C@@H](O)CN(Cc1ccc(-c2ccccn2)cc1)NC(=O)[C@@H](NC(=O)OC)C(C)(C)C)C(C)(C)C", "note": "[ATV, atazanavir]", "values": [{"measurement": "fold change of EC50 compared to wild-type HIV-1ERS104pre", "setting": "HIV-1MDR/G (X4)", "result": 7}, {"measurement": "fold change of EC50 compared to wild-type HIV-1ERS104pre", "setting": "HIV-1MDR/JSL (R5)", "result": 109}, {"measurement": "fold change of EC50 compared to wild-type HIV-1ERS104pre", "setting": "HIV-1MDR/MM (R5)", "result": 76}, {"measurement": "fold change of EC50 compared to wild-type HIV-1ERS104pre", "setting": "HIV-1MDR/TM (X4)", "result": 28}, {"measurement": "fold change of EC50 compared to wild-type HIV-1ERS104pre", "setting": "HIV-1MDR/C (X4)", "result": 14}, {"measurement": "fold change of EC50 compared to wild-type HIV-1ERS104pre", "setting": "HIV-1MDR/B (X4)", "result": 174}]}
{"smiles": "COc1ccc(S(=O)(=O)N(CC(C)C)C[C@@H](O)[C@H](Cc2ccccc2)NC(=O)O[C@@H]2CCO[C@@H]3OCC[C@@H]32)cc1", "note": "[Inhibitor 35b, (3aR,4R,7aS)-Hexahydro-2H-furo[2,3-b]pyran-4-yl ((2S,3R)-3-hydroxy-4-(N-isobutyl-4-methoxyphenylsulfonamido)-1-phenylbutan-2-yl)carbamate]", "values": [{"measurement": "ID50 (antiviral activity)", "setting": "HIV-1LAI; MT-2 cells exposed to HIV-1LAI", "result": 0.019, "unit": "µM"}, {"measurement": "fold change in Ki (loss of enzyme inhibitory potency)", "setting": "HIV-1 protease", "result": "> 20", "unit": "fold"}]}
{"smiles": "COc1ccc(S(=O)(=O)N(CC(C)C)C[C@@H](O)[C@H](Cc2ccccc2)NC(=O)O[C@H]2CCC[C@H]3OCC[C@@H]23)cc1", "note": "[Inhibitor 35c, (3aR,4S,7aR)-Octahydrobenzofuran-4-yl (2S,3R)-3-hydroxy-4-(N-isobutyl-4-methoxyphenylsulfonamido)-1-phenylbutan-2-yl carbamate]", "values": [{"measurement": "fold decrease in antiviral activity", "setting": "HIV-1LAI; compared to inhibitor 35a", "result": 16, "unit": "fold"}, {"measurement": "fold change in Ki (loss of enzyme inhibitory potency)", "setting": "HIV-1 protease", "result": 2, "unit": "fold"}]}
{"smiles": "COc1ccc(S(=O)(=O)N(CC(C)C)C[C@@H](O)[C@H](Cc2ccccc2)NC(=O)O[C@H]2CCO[C@H]3COC[C@H]32)cc1", "note": "[Inhibitor 35f, (4S,4aS,7aR)-Hexahydro-2H-furo[3,4-b]pyran-4-yl ((2S,3R)-3-hydroxy-4-(N-isobutyl-4-methoxyphenylsulfonamido)-1-phenylbutan-2-yl)carbamate]", "values": [{"measurement": "antiviral activity (in words)", "setting": "HIV-1LAI; MT-2 cells exposed to HIV-1LAI", "result": "no antiviral activity"}]}
